The source of these data is publication PMC6269799, “Synthesis and Trypanocidal Activity of Novel 2,4,5-Triaryl-N-Hydroxylimidazole Derivatives” (Molecules, 2013).

Values joined by “and” are separate entries in the source; they are usually repeats but may differ in a detail not shown here. Identical values can stand only once. Like-named read-outs stand apart in the source and are kept apart here.

For data set [1], the system named is bloodstream trypomastigote forms of T. cruzi (Y strain). Put plainly: Activity against bloodstream trypomastigote forms. It is filed as cell-based, Trypanosoma cruzi. The following applies: in vitro, mean ± standard deviation of at least four separate experiments, read-out: IC50 (trypanocidal activity). The method, then: The trypanocide profiles of the new TAI derivatives 3–12 was evaluated in vitro using bloodstream trypomastigote forms of T. cruzi (Y strain) isolated from infected Swiss mice and are summarised in Table 1.
Stock solutions of NAH derivatives were prepared in DMSO. Bloodstream trypomastigote forms of T. cruzi (Y strain) were isolated from infected Swiss mice and re-suspended with Dulbecco’s modified Eagle medium plus 10% foetal calf serum (DMES) to a parasite concentration of 10 × 10^6 cells/mL. This suspension (100 μL) was added to the same volume of each NAH derivative, previously prepared at twice the desired concentrations in DMES. Stock solutions of the NAH derivatives were prepared in dimethylsulfoxide (DMSO), and they were assayed in the range of 0.5 to 2000 μg/mL. The final concentration of DMSO never exceeded 0.5%, thus, it had no deleterious effect on the parasites.

Data set [2] in a line: Cytotoxic effect on murine macrophages (Alamar Blue assay). It is filed as cell-based. The following applies: mouse, J774 macrophage cell line, murine macrophages J774, 21 h after the treatment. Here is the method: (§1) Cellular viability in the presence and absence of TAI derivatives (4–6) was determined using Alamar Blue assay (Invitrogen). The macrophage cell line J774 was seeded into black clear flat-bottomed 96-well plates in a density of […]. After 1 h of incubation in controlled atmosphere (5% CO2, 37 °C),cells received fresh medium with or without Tween 20 (3%), DMSO (0.5%) and the TAI compounds (1 to 100 μM) in a quadruplicate assay. After 21 h of incubation in the previous conditions, 20 μL of Alamar Blue solution was added to each well and after 3 h, fluorescence was measured using SpectraMax M5/M5^e microplate reader (Molecular Devices; λexc = 555 nm, λem = 585 nm).

The subject of data set [3] is macrophage cell line J774. The description is as above. It is filed as cell-based. The method, then:
as §1

For the molecule “2'-(3-Hydroxy-4-methoxy-5-nitrophenyl)-1-methyl-5-nitro-5'-phenyl-1H,3'H-2,4'-biimidazol-3'-ol [Compound 12]”, in data set [1], the IC50 amounted to 242 ± 7.54 µM.

For the molecule `O=C(Cn1ccnc1[N+](=O)[O-])NCc1ccccc1` [Bzn, benznidazole, reference compound], in data set [1] (Trypanosoma cruzi), the IC50 stood at 10.8 ± 0.4 µM.

Regarding `Cn1c([N+](=O)[O-])cnc1-c1c(-c2ccccc2)nc(-c2ccccc2)n1O` [Compound 3, 1-Methyl-5-nitro-2',5'-diphenyl-1H,3'H-2,4'-biimidazol-3'-ol], the melting point fell in the range of 217 to 218 °C. Also, in data set [1] (Trypanosoma cruzi), the concentration for half-maximal inhibition (IC50) is 108 ± 5.65 µM.

For the molecule `Cn1c([N+](=O)[O-])cnc1-c1c(-c2ccccc2)nc(-c2ccc(F)cc2)n1O` [Compound 4, 2'-(4-Fluorophenyl)-1-methyl-5-nitro-5'-phenyl-1H,3'H-2,4'-biimidazol-3'-ol], in data set [1] (Trypanosoma cruzi), the IC50 came to 67.8 ± 8.39 µM. Also, in data set [2], the viability at 21 h, 1 µM was determined as 94.2%; the viability at 21 h, 10 µM amounted to 98.9%; the viability at 21 h, 100 µM was 97.6%.

Turning to `Cn1c([N+](=O)[O-])cnc1-c1c(-c2ccccc2)nc(-c2ccc(Cl)cc2)n1O` [Compound 5, 2'-(4-Chlorophenyl)-1-methyl-5-nitro-5'-phenyl-1H,3'H-2,4'-biimidazol-3'-ol], the melting point fell in the range of 249 to 250 °C. Besides, in data set [1] (Trypanosoma cruzi), the IC50 was 34.6 ± 2.43 µM. In data set [2], this molecule yielded a viability at 21 h, 1 µM of 95.7%; a viability at 21 h, 10 µM of 97.6%; a viability at 21 h, 100 µM of 93.1%.

Consider `Cn1c([N+](=O)[O-])cnc1-c1c(-c2ccccc2)nc(-c2ccc(Br)cc2)n1O` [Compound 6, 2'-(4-Bromophenyl)-1-methyl-5-nitro-5'-phenyl-1H,3'H-2,4'-biimidazol-3'-ol], for which the IC50 in data set [1] (Trypanosoma cruzi) amounted to 23.9 ± 4.88 µM. Besides, the “effect on cell viability (in words)” value in data set [3] (100 μM, murine macrophages) is on record as “weakly reduced cell viability”. In addition, the “cytotoxic effects (in words)” value in data set [3] (host cells (murine macrophages) at concentrations near the trypanocidal IC50) was “did not present cytotoxic effects”. Besides, in data set [2], the viability at 21 h, 1 µM is 97.3%; the viability at 21 h, 10 µM was 97.6%; the viability at 21 h, 100 µM came to 78.7%.

Molecule `Cn1c([N+](=O)[O-])cnc1-c1c(-c2ccccc2)nc(-c2ccc([N+](=O)[O-])cc2)n1O` [Compound 7, 1-Methyl-5-nitro-2'-(4-nitrophenyl)-5'-phenyl-1H,3'H-2,4'-biimidazol-3'-ol] gave a melting point of 361 to 362 °C. In data set [1] (Trypanosoma cruzi), the IC50 stood at 242 ± 37.6 µM.

Consider `COc1ccc(-c2nc(-c3ccccc3)c(-c3ncc([N+](=O)[O-])n3C)n2O)cc1` [Compound 8, 2'-(4-Methoxyphenyl)-1-methyl-5-nitro-5'-phenyl-1H,3'H-2,4'-biimidazol-3'-ol], for which the melting point is 218 to 219 °C. Also, the IC50 in data set [1] (Trypanosoma cruzi) was 192 ± 25.3 µM.

For `Cn1c([N+](=O)[O-])cnc1-c1c(-c2ccccc2)nc(-c2ccc(O)cc2)n1O` [Compound 9, 2'-(4-Hydroxyphenyl)-1-methyl-5-nitro-5'-phenyl-1H,3'H-2,4'-biimidazol-3'-ol], in data set [1] (Trypanosoma cruzi), the IC50 turned out to be 294 ± 28 µM.

On to `Cn1c([N+](=O)[O-])cnc1-c1c(-c2ccccc2)nc(-c2ccc(O)c(O)c2)n1O` [Compound 10, 4-(3'-Hydroxy-1-methyl-5-nitro-5'-phenyl-1H,3'H-2,4'-biimidazol-2'-yl)benzene-1,2-diol], for which the IC50 in data set [1] (Trypanosoma cruzi) is 360 ± 24.7 µM.

For `COc1ccc(-c2nc(-c3ccccc3)c(-c3ncc([N+](=O)[O-])n3C)n2O)cc1O` [Compound 11, 2'-(3-Hydroxy-4-methoxyphenyl)-1-methyl-5-nitro-5'-phenyl-1H,3'H-2,4'-biimidazol-3'-ol], the melting point is 213 to 214 °C and 213 °C. Moreover, the IC50 in data set [1] (Trypanosoma cruzi) turned out to be 200 ± 2.02 µM.
